Data on two molecules can be found in patent US20260108547A1, “LEVERAGING L-FUCOSE-MEDIATED SIGNALING TO INDUCE MONOCYTE-DERIVED DENDRITIC CELL POLARIZATION” (H. LEE MOFFITT CANCER CENTER AND RESEARCH INSTITUTE, INC., priority 2022, published 2026).

Assay [1] concerns SW1 tumors. Kind of assay: Flow cytometric profiling of tumors and lymph nodes, SW1 tumors in C3H/HeN mice fed ± L-fucose and treated ± FTY720 (Table 1). The format is in vivo, mouse. How it is done: Tumors of SW1 or SM1 melanoma cells from […] or C57BL/6 mice, respectively) were digested using 1× tumor digest buffer (0.5 mg/mL Collagenase I, 0.5 mg/mL Collagenase IV, 0.25 mg/mL Hyalyronidase V, 0.1 mg/mL DNAse I in HBSS (Millipore Sigma (St. Louis, MO)). Tumors were homogenized using the Miltenyi MACs dissociator. Red blood cells were lysed using ACK lysis buffer (Life Technologies, (Grand Island, NY)). Tumor homogenate cells were counted using a standard hemocytometer.
Total TILs were gated first to single cells (based on forward scatter height vs width, followed by side scatter height vs. width). Live cells were gated from the Zombie negative population from the population above. TILs were gated based on splenocyte size from a control spleen. Individual immune subpopulations were sub-gated from the total TIL population using the following staining criteria: CD3^+ for CD3^+ T cells; CD3^+/CD4^+/CD8^− for CD4^+T cells; CD3^+/CD4^−/CD8^+ for CD8^+ T cells, CD11c^+/CD11b^+ for DCs; either NK1.1 (for C57/BL6 mice) or DX5 (for C3H/HeJ) for NK cells; CD11b^+/GR1^+ for MDSC-like cells; and F4/80^+ for macrophages. Single-cell suspensions from tumor and spleen tissue were stained with Live/Dead Zombie NIR (Biolegend, (San Diego, CA)) at 1:1,000 in PBS for 20 min. Cell suspensions were spun down and stained with the following with antibodies at 0.5 μg/ml per antibody: APC anti-mouse CD3, Pacific Blue anti-mouse CD4, BV785 anti-mouse CD8, PerCP anti-mouse CD25, FITC anti-mouse F4/80, PeCy7 anti-mouse CD11c, PE anti-mouse NK1.1 or PE anti-mouse DX5, and PerCP-Cy5.5 anti-mouse CD11b. After staining, the cells were washed and fixed (2% formaldehyde), followed by another wash and flow cytometric analysis. The compensation controls were prepared using 0.5 μg/mL of each antibody with UltraComp eBeads, (ThermoFisher Scientific (Waltham, MA)). All samples were subject to flow cytometric profiling using a LSR Flow Cytometer (BD Biosciences (San Jose, CA)) and analysis as indicated using FlowJo software (BD Biosciences (San Jose, CA)).
(§1) For all mouse models, 1×10^6 melanoma cells were injected subcutaneously in the right hind flanks of each mouse. […] This dosage is within ranges for dietary supplementation with L-fucose and other similar dietary sugars (e.g., D-mannose) in other rodent studies. When the tumors reached −2 cm^3, the animals were sacrificed, and the tumors either processed for flow cytometric profiling or for histological analysis as indicated.
(§2) Control vs. L-fucose±FTY720 models (FIG. 2): SW1 or SM1 mouse melanoma cells were injected into syngeneic C3H/HeN (or NSG) female or C57BL/6 male mice, respectively. Cells were injected as follows: parental SW1 cells for FIG. 1A; parental SM1 cells for FIG. 1E; SW1 cells stably expressing either empty vector (EV) or mouse fucose kinase (mFuk) for FIG. 1L; and parental SW1 cells for FIG. 1M. FTY720 was administered at 20 μg every 2 days starting on Day 12, just prior to the initiation of LF, until endpoint.

Assay [2] deals with SW1 tumors. Kind of assay: Volumetric tumor growth, SW1 melanoma in C3H/HeN mice (incl. immunodepletion, FTY720, anti-PD1). It is filed as in vivo, mouse. Conditions: SW1 melanoma C3H mouse model treated with FTY720 (inhibition of lymph node egress).
Text: All animals were housed at the Vincent A. Stabile Research building animal facility at H. Lee Moffitt Cancer Center & Research Institute, which is fully accredited by the Association for Assessment and Accreditation of Laboratory Animal Care International (AAALAC, #434), and are managed in accordance with the Guide for the Care and Use of Laboratory Animals (“The Guide”), the Animal Welfare Regulations Title 9 Code of Federal Regulations Subchapter A, “Animal Welfare”, Parts 1-3 (AWR), the Public Health Service Policy on Humane Care and Use of Laboratory Animals (PHS Policy), and by the USF Institutional Animal Care and Use Committee's Principles and Procedures of Animal Care and Use (IACUC Principles). The experiments and protocols detailed in this study received institutional approval by the Moffitt IACUC (RIS00001625). Four-to-six-week-old female C3H/HeN and male C57BL6 mice were purchased from Charles Rivers Laboratories for the indicated experiments. Four-to-six-week-old male NSG mice from the Lau laboratory breeding colony were used for the indicated experiments. Power calculations were used to determine mouse cohort sizes to detect significant changes in tumor sizes. In general, 10 mice per indicated cohort to accommodate for incidental loss of mice due to issues beyond our control (e.g., incidental tumor ulceration that required exclusion from the study). Mouse tumor volumes were measured using length, width and depth divided by 2. At each experimental endpoint, mice were humanely euthanized using CO2 inhalation in accordance to the American Veterinary Medical Association guidelines.
as §1
Control vs. mFuk±L-fucose models (FIG. 1 & FIG. 8): SW1 or SM1 mouse melanoma cells were injected into syngeneic C3H/HeN (or NSG) female or C57BL/6 male mice, respectively, as follows: parental SW1 cells for FIG. 1A; parental SM1 cells for FIG. 1E; SW1 cells stably expressing either empty vector (EV) or mouse fucose kinase (mFuk) for FIG. 1L; and parental SW1 cells for FIG. 1M.
as §2
Immunodepletion mouse models (FIG. 1 & FIG. 8): Three days prior to tumor engraftment, PBS (control) or ˜300 μg α-CD4 (20 mg/kg, for immunodepletion, GK1.5, Bioxcell (West Lebanon, NH)) or 0-CD8 (20 mg/kg, for immunodepletion, 2.43, Bioxcell (West Lebanon, NH)) was administered by intraperitoneal injection into the indicated cohorts of mice. Injections of immunodepletion antibody or PBS were continued every 3-4 days until endpoint. Syngeneic recipient C3H/HeN female or C57BL/6 male mice were injected with SW1 or SM1 cells, respectively. […]

In assay [3] the test system is HLA-DRB1. Kind of assay: Flow cytometric assessment of cell surface fucosylation and HLA-DRB1 in melanoma cells. Conditions: 250 μM, 72 h; flow cytometry. The format is cell-based, human. How it is done: Indicated cells were treated for 72 h with DMSO, 250 μM fucosyltransferase inhibitor (FUTi) (Millipore Sigma (St. Louis, MO)), or 250 μM of L-fucose (Biosynth (Oak Terrace, IL)). After 72 h, cells were stained with 0.1 μM PKH26 (Millipore Sigma (St. Louis, MO)) prior to fixation in 4% formaldehyde solution. The cells were stained with anti-HLA-DRB1 and fluorescein AAL, or anti-human or anti-mouse PD-L1 overnight. The following day the cells were washed 3 times prior to adding AlexaFluor 594 donkey anti-rabbit. Cells were washed 3 times and then subject to flow cytometric analyses using a FACSCalibur (BD Biosciences (San Jose, CA)). Samples were analyzed using FlowJo analysis software (BD Biosciences (San Jose, CA)). Median values of DRB1 and AAL were normalized to PKH26 values and statistical analysis was performed using GraphPad Prism.
In general terms: In flow cytometry, cells or beads pass a laser one at a time.

Assay [4] deals with fucosylated HLA-DRB1. Description: Lectin-mediated proximity ligation assay (L-PLA) of fucosylated HLA-DRB1 in WM793 cells. The format is cell-based, human. As to conditions: melanoma cells. How it is done: Coverslip-grown cells subjected to L-PLA were processed upfront as described in the fluorescent immunocytochemistry protocol detailed above, whereas FFPE tumor tissue sections were processed according to the fluorescent immunohistochemistry protocol detailed above. Both approaches used mouse-anti-HLA-DRB1 (applied at 0.2 μg/mL, ab215835, Abcam, Cambridge, UK), biotinylated AAL lectin (applied at 0.2 μg/mL, Vector Laboratories (Burlingame, CA)), on coverslips overnight in 4° C. The coverslip-grown cells were again washed twice with PBS followed and then incubated with phalloidin Alexafluor 488 (applied at 0.05 μg/mL, ThermoFisher Scientific (Waltham, MA) with goat anti-biotin (applied at 0.1 μg/mL, Vector Laboratories (Burlingame, CA)) for 2h in 4° C. Subsequent steps of the protocol were adapted from the DUOlink In Situ Green PLA kit's manufacturer's protocol (Millipore Sigma (St. Louis, MO)). PLA anti-goat MINUS and PLA anti-mouse PLUS probes were applied at 1:5 for 1 h at 37° C. The coverslips were washed twice with Wash Buffer A prior to ligation with 1:5 ligation buffer and 1:40 ligase in ddH2O for 30 min at 37° C. […] Microscopy images were acquired using a Keyence BZ-X710, and images were process and analyzed using FIJI (NIH).

In assay [5] the test system is HLA-DRB1. Kind of assay: qRT-PCR and immunoblot of HLA-DRB1 mRNA and protein levels in melanoma cells. It is filed as cell-based, human. Conditions: 250 μM. On the procedure:
Cells were lysed on ice in RIPA lysis buffer (25 mM Tris-HCl pH 7.6, 150 mM NaCl, 5 mM EDTA, 1% NP-40 or 1% Triton X-100, 1% sodium deoxycholate, 0.1% SDS in diH2O+protease and phosphatase inhibitors (ThermoFisher Scientific (Waltham, MA)), briefly sonicated, pelleted, and the resulting lysates were normalized by protein concentration using DC assay (BioRad Laboratories, (Hercules, CA)). The indicated samples were subjected to (12%) SDS-PAGE and immunoblot analysis using the indicated antibodies. Immunoblot imaging and analysis was performed using either an Odyssey FC scanner and ImageStudio (LiCor Biosciences, Lincoln, NE) or film.
RNA from cells subjected to the indicated treatments was extracted using Gene Elute Mammalian Total RNA Extraction System (Millipore Sigma (St. Louis, MO)). RNA was reversed transcribed to cDNA using High-Capacity cDNA Reverse Transcription Kit (ThermoFisher Scientific (Waltham, MA)). qRT-PCR analysis was performed using FastStart Universal SYBR Green Master Mix (Rox) (Roche Diagnostics, (Indianapolis, IN)) using a BioRad CFX96 Real-time system (BioRad Laboratories, (Hercules, CA)). The qRT-PCR cycles used were as follows: 95° C. for 10 min, 35 cycles of 95° C. for 15 seconds, 55° C. for 60 seconds,
and 72° C. for 30 seconds. Expression of the indicated genes was normalized to histone H3A expression. […]
On the technique in general: Real-time PCR tracks product formation cycle by cycle.

Assay [6] deals with HLA-DRB1. Description: Immunofluorescent subcellular localization of HLA-DRB1 in WM793 cells. It is filed as cell-based, human. As to conditions: compared with vehicle (DMSO). On the procedure: General fluorescent immunocytochemical staining protocol: Melanoma cells were grown on German glass coverslips (Electron Microscopy Services (Hatfield, PA)) and fixed in fixation buffer (4% formaldehyde, 2% sucrose in phosphate buffered saline (PBS) for 20 min at room temperature (RT). The coverslip-grown cells were subject to two 5-min standing washes in PBS prior to permeabilization in permeabilization buffer (0.4% Triton-X-100 and 0.4% IgG-free bovine serum albumin (BSA, Jackson ImmunoResearch Laboratories (Westgrove, PA) in PBS) for 20 min at RT. The coverslip-grown cells were next subject to 2 PBS washes and incubated with the indicated primary antibodies.

`CCCCCCCCc1ccc(CCC(N)(CO)CO)cc1` [FTY720, reference compound]: in assay [1] (Day 28, tumors), the “average # of CD4 stem central memory cells” value is 0.87 per 10^6 cells and the “average # of CD8 stem central memory cells” value turned out to be 0.00 per 10^6 cells. Also, in assay [1] (Day 42, tumors), the “average # of CD8 effector memory cells” value was found to be 220.02 per 10^6 cells and the “average # of CD8 stem central memory cells” value is 0.00 per 10^6 cells. Further, the “intratumoral CD4+T central and effector memory subpopulations” value in assay [1] (SW1 model ± FTY720) is “abrogated”. Moreover, the L-fuc-triggered tumor suppression result in assay [2] is recorded as “completely abrogated”.
As to `CC(=O)OC1O[C@@H](C)[C@@H](OC(C)=O)[C@@H](OC(C)=O)[C@@H]1F` (some centres unmarked) [FUTi, 2F-peracteyl-fucose, reference compound], in assay [3], the “cell surface HLA-DRB1” value is “decreased” and the cell surface fucosylation entry is “decreased”. The “cytoplasmic/membranous localization of endogenous fucosylated HLA-DRB1 (L-PLA)” value in assay [4] is listed as “lost”. Besides, in assay [5], the “HLA-DRB1 mRNA and protein levels” value is “remained unchanged”. For the same molecule, in assay [6], the “subcellular localization of HLA-DRB1” value was “dimmer, more central, endoplasmic reticulum-co-localization of HLA-DRB1”.
